{"source": "paper PMC12069692", "about": "“Pharmacological inhibition of PLK1/PRC1 triggers mitotic catastrophe and sensitizes lung cancers to chemotherapy” (Cell Death & Disease, 2025)", "molecular_target": "T1, PLK1 (Homo sapiens, UniProt P53350)", "T1 construct": "Recombinant PLK1 protein (Active Motif 81429) in SPR; Flag-PBD in Co-IP-MS", "T1 sequence (P53350 2-603)": "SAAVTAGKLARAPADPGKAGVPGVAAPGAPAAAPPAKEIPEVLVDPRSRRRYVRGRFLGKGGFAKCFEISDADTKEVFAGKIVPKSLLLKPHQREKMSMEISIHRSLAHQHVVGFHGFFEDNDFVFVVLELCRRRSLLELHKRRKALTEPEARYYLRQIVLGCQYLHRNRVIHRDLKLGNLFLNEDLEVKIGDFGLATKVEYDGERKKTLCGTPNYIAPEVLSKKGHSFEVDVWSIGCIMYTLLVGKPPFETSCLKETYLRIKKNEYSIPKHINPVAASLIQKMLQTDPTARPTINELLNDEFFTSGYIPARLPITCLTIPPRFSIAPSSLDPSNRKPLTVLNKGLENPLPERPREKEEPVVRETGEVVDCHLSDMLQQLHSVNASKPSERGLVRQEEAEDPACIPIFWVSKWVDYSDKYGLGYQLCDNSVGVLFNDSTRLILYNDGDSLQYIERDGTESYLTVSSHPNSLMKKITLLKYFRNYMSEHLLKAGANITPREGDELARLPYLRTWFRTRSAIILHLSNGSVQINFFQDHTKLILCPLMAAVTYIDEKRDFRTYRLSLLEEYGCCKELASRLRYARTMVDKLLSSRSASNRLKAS", "assay": "SPR (Biacore T200, immobilized PLK1); supported by T1rho NMR, CETSA, Co-IP-MS, in vitro kinase assay (IC50 […])", "assay_type": "binding", "note": "pKd: −log10 of the molar value."}
{"smiles": "CN(C)CCN1C(=O)c2cccc3c(S(=O)(=O)NCc4ccc(C(F)(F)F)cc4)ccc(c23)C1=O", "note": "[B4]", "values": [{"measurement": "pKd", "value": "~5.25"}]}
